# Measured values reported in patent publication US8299097B2, “Methods for treating inflammatory disorders” (The Brigham and Women's Hospital, Inc., priority 2008, dated 2012).
# Legend:
# human P2Y12 [1] = target: T1, human P2Y12 (Homo sapiens, UniProt Q9H244); assay: Binding of [P^33]2-MesADP and [H^3]LTE4 to membranes of COS-7 cells transfected with the human P2Y12 construct; set-up: polyhistidine (HIS) tag (C); expressed in transfected cells; host or cells: COS-7 cells, transient; conditions: COS-7 membranes, forward P2Y12 construct
# T1 sequence (Q9H244 whole entry): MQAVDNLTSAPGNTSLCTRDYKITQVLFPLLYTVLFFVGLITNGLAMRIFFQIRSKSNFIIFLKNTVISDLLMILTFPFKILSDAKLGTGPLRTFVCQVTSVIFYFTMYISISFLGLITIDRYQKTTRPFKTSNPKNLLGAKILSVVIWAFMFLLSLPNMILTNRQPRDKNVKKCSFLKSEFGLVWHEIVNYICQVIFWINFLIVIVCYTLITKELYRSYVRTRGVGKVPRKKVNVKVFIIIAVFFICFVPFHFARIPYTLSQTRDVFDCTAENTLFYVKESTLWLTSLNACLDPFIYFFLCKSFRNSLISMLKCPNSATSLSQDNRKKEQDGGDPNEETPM
# Protocol: FIG. 10. Competitive ligand binding assays. 10A. […] Specific binding (typically 50-75% of the total) was calculated by subtracting the amount of radiolabel that was insensitive to the selective P2Y12 receptor antagonist 2-MesAMP. Nonspecific binding was essentially identical in the membranes with and without P2Y12 receptor knockdown. The dose response for the LAD2 membranes are from a single experiment repeated four times with similar results. The binding on the LAD2 cells with P2Y12 knocked down was repeated twice. 10B. Specific binding of radiolabeled ADP (2000 nM) to membranes of LAD2 cells. […] Results are mean±SD from three separate experiments. 10C. Conversion of radiolabeled LTD4 to LTE4 as confirmed by HPLC (left). […] Results in a second experiment were similar 10D. Competitive binding of radiolabeled 2-MesADP to COS-7 cells transfected with the human P2Y12 construct.
# Competitive radioligand binding assays were performed using [H^3]ADP (the known natural ligand of P2Y12 receptors) and unlabeled LTs as competitors. […] The membranes from the transfectants expressing the forward construct bound [P^33]2-MesADP, a selective P2Y12 receptor agonist.
# human P2Y12 [2] = target: T1, human P2Y12; assay: Binding of cys-LTs to membranes of CHO cells stably expressing the human P2Y12 receptor; set-up: polyhistidine (HIS) tag (C); expressed in transfected cells
# Excerpt: A P2Y12 receptor cDNA was amplified by reverse transcriptase polymerase chain reaction (RT-PCR) from RNA extracted from primary hMCs and cloned into a mammalian expression vector. Expression was confirmed by detection of a histidine (HIS) tag by flow cytometry. Another cohort of CHO cells were stably transfected with a P2Y12 receptor construct in reverse orientation as a negative control. […] The cys-LT-induced ERK activation blocked by pre-treatment of the cells with pertussis toxin (PTX), was attenuated by treatment with the P2Y12 receptor-selective antagonist 2-methylthioadenosine monophosphate (2-MesAMP) (FIG. 1C), and was resistant to MK571, an inhibitor that blocks CysLT1R and some P2Y receptors (Mamedova, L., et al. 2005. Biochem. Pharmacol. 71:115-125). […] These responses were resistant to PTX and 2-MesAMP, and susceptible to MK571 in the case of the CysLT1R transfectants.
# A human P2Y12 receptor cDNA was amplified by 30 cycles of PCR from reverse-transcribed total RNA extracted from primary cord blood hMCs. The primer sequences were 5′-[…] (SEQ ID NO: 1) and 3′-[…] (SEQ ID NO: 2). The fragment was cloned into a TA vector (INVITROGEN™). After verifying the nucleotide sequence, the fragment was subcloned into the multiple cloning site of the expression vector pEF1/His B, encoding a C-terminal polyhistidine (HIS) tag. A plasmid expressing the P2Y12 receptor construct in the forward orientation were transfected into CHO cells using Fugene HD reagent according to manufacturer's protocol. A construct in the reverse sequence was transfected in parallel as a negative control. […]
# [^3H] […] Protein concentration was determined using Biorad Protein Assay Kit. […] The residual membrane-associated [^3H] on the filter was determined in 2 ml scintillation fluid by beta counter (Perkin Elmer). For [^3H]ADP, specific binding was determined by subtracting the amount of [^3H] bound in the presence of 100 μM 2-MesADP from total binding.
# LAD2 cells = assay: MIP-1β generation by LAD2 cells (ELISA); format: cell-based, human
# Protocol: FIG. 2. Requirement for P2Y12 receptors in LTE4-mediated LAD2 cell activation. 2A. Calcium flux of LAD2 cells stimulated with the indicated agonists (500 nM) in the presence or absence of the P2Y12 receptor-selective antagonist 2-MeSAMP (100 μM). […] 2B. […] Cells sensitized overnight with IgE and challenged with anti-IgE were used as the positive control. 2C. […] Results in 2B and 2C are mean±SEM from three independent experiments each. 2D. Effect of shRNA-mediated knockdown of P2Y12 receptor mRNA expression by LAD2 cells.
# FIG. 9. Effect of apyrase treatment on LT-mediated activation of LAD2 cells. 9A. […] Concentrations of MIP-1β were measured by ELISA. 9B. […] Lysates were resolved by SDS-PAGE and probed with the indicated antibodies against phospho- and total ERK. Results in 9A are the mean±½ range from two experiments, while 9B is representative of two experiments.
# Pre-treatment of the LAD2 cells with 2-MesAMP blocked the LTE4-mediated increment in MIP-1β production by >50% (FIG. 2B). […] To exclude potential off-target effects of the inhibitors, samples of LAD2 cells were transfected with lentiviruses encoding a P2Y12 sequence-specific shRNA, a CysLT1R-specific shRNA, or an empty vector control before stimulation. […] LTE4- and LTD4-dependent production of PGD2 were abrogated by the knockdowns of P2Y12 and CysLT1R, respectively (FIG. 2C, bottom). Neither GPCR knockdown altered MIP-1β generation or PGD2 production in response to IgE-anti-IgE (FIG. 2C). LTE4-mediated MIP-1β generation (FIG. 9A) and ERK activation (FIG. 9B) were not altered by treatment of LAD2 cells with apyrase to degrade extracellular ADP.
# The concentration of MIP-1β was measured by an ELISA (ENDOGEN®). PGD2 was quantitated by a PGD2-methoxylamine hydrochloride (PGD2-MOX) assay.
structure (smiles),measurement,setting,value
CCCCC/C=C\C\C=C/C=C/C=C/[C@@H](SC[C@H](N)C(=O)NCC(=O)O)[C@@H](O)CCCC(=O)O [LTD4],competition for [P^33]2-MesADP binding,human P2Y12 [1],not competed
same,binding to membranes of the transfectants,human P2Y12 [2],also bound
CCCCC/C=C\C\C=C/C=C/C=C/[C@@H](SC[C@H](N)C(=O)O)[C@@H](O)CCCC(=O)O [LTE4],MIP-1β generation,"LAD2 cells; LTE4 100 and 500 nM, 6 h",induced the generation of large amounts of MIP-1β
same,binding of [H^3]LTE4 to membranes,human P2Y12 [1],failed to bind
same,competition for [P^33]2-MesADP binding,human P2Y12 [1],not competed
same,Kd,"human P2Y12 [2]; membranes of P2Y12 CHO transfectants, read-out: affinity constant",10 nM
CN(C)C(=O)CCSC(SCCC(=O)O)c1cccc(/C=C/c2ccc3ccc(Cl)cc3n2)c1 (stereo not shown) [MK571],effect on MIP-1β response to LTD4 and LTE4,"LAD2 cells; 2-MesAMP 100 μM, MK571 1 μM",suppressed the response to both ligands
